Entries after “also recorded” stand apart in the source; their conditions may differ.
Experiments:
ATGL [1] = assay: ATGL level in primary mouse hepatocytes (western blot); assay type: cell-based; conditions: 24 hours
Protocol: (§1) To further strengthen the efficiency of the compounds 9 and 107, primary hepatocytes were isolated from mice and these compounds were treated in a dose dependent manner for 24 hours. Primary hepatocytes and adipose tissue explants were isolated from mice and subjected to compound treatment for 24 hours at the doses of 100 nM, 500 nM and 1 μM. Post cell harvesting, western blot was carried out with the lysate to check the ATGL level. ATGL and COP1 antibodies were used. Actin served the purpose of a loading control.
(§2) 1. Hepatocytes—2-4 months old chow-fed black male mouse (C57bl/6) was sacrificed using chloroform (SRL) and was cleaned with 70% ethanol. […] Blood was drawn from the heart in order to prevent backflow into liver while perfusion. The butterfly cannula was inserted into the PV and 20 ml of HBSS (Hank's Balanced Salt Solution; 5 mM KCl, 0.4 mM KH2PO4, 4 mM NaHCO3, 140 mM NaCl, 0.3 mM Na2HPO4, 6 mM Glucose, HEPES, 0.5 mM MgCl2·6H2O, 0.4 mM MgSO4·7H2O, 0.5 mM EDTA; not containing 1 mM CaCl2)) was allowed to pass through the liver (Perfusion) at a constant flow rate of 3 ml/min, maintained by Masterflex digital peristaltic pump (Cole-Parmer). The IVC was cut as soon as the passage of the buffer through the liver began, so that blood and perfusate from liver is drained through the IVC. The liver blanched and became pale in color upon this treatment.
After the passage of HBSS, 25 ml of Collagenase (Roche) solution (1 mg/ml) in HBSS (containing 1 mM CaCl2)) was allowed to pass through the liver at a constant flow rate of 2 ml/min. After this digestion, the flow was stopped, the cannula removed and the pale and soggy lobes of the liver were gently excised from the body. The gall bladder was removed from the isolated liver. The pieces of digested liver tissue were then minced on a 10 cm culture plate in HBSS (containing 1 mM CaCl2)). The resulting suspension was then passed through a […] cell strainer (SPL) to allow hepatocytes to pass through to the filtrate and retain cellular clumps and undigested tissue. The filtrate was centrifuged at 50 g for 2 minutes at 4° C. […]

ATGL [2] = assay: In vivo study: ATGL level in mouse liver; set-up: species or system C57BL/6 mice; conditions: 30 mg/kg orally
Protocol: (§3) 6-8 weeks old healthy female C57BL/6 mice (average weight: 25 grams) were taken for the study. These were then divided into three groups comprising of three mice per group (Control, compound 107 fed for 8 hours and compound 107 fed for 16 hours). Mice were fed with 30 mg/kg of compound 107 orally. The compound was dissolved in 25% DMSO and 75% PBS. The control group was fed only with the solvent in which the compound was dissolved. Post 8 hours and 16 hours of feeding, mice were sacrificed and a portion of the excised liver tissue was homogenized in lysis buffer containing protease inhibitor cocktail. The homogenate was centrifuged at 20,000 g for 30 minutes following which the supernatant containing the protein lysate was collected. The lysate was then diluted accordingly and protein estimation was carried out by Bradford Assay. This was followed by Western Blotting wherein the levels of ATGL and COP1 were checked. Actin was used as the loading control.

COP1 [3] = target: T1, COP1 (Mus musculus, UniProt Q9R1A8); assay: In vivo study: COP1 level in mouse liver; set-up: from tissue; host or cells: mouse liver (in vivo dosing); species or system C57BL/6 mice; conditions: 30 mg/kg orally
T1 sequence (Q9R1A8 whole entry): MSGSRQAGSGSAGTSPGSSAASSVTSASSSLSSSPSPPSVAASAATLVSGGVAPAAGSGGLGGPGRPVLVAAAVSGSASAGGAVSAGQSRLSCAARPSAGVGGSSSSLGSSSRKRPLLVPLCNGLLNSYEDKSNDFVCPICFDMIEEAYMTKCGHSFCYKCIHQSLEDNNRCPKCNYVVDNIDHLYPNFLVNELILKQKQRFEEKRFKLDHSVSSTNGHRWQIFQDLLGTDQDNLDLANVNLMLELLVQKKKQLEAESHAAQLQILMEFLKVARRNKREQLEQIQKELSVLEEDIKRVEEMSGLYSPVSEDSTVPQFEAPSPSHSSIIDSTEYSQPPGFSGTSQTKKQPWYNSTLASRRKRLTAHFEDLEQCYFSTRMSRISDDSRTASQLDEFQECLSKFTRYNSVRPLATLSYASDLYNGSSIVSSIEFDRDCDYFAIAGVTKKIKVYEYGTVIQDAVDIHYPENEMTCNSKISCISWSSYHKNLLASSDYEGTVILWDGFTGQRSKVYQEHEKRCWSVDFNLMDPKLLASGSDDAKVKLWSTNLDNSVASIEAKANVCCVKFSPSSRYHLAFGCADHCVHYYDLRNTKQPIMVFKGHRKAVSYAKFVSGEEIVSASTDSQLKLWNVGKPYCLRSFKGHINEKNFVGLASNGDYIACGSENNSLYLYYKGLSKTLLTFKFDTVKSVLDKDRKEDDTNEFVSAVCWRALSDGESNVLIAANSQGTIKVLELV
Protocol: as §3

ATGL [4] = assay: ATGL level in mouse adipose tissue explants (western blot); assay type: cell-based; conditions: 24 hours, 100 nM, 500 nM and 1 μM
Protocol: as §1
2. Adipocytes—2-4 months old chow-fed black male mouse (C57bl/6) was sacrificed using chloroform (SRL) and was cleaned with 70% ethanol. Under aseptic conditions, the ventral side of the mouse was cut open, and gonadal (epididymal) white adipose tissue were excised using scissors and suspended in 1×PBS supplemented with 0.1% BSA in a 10 cm culture plate. The attached blood vessels were removed and the adipose tissue was minced as much as possible. The suspension was centrifuged at 50 g for 2 minutes at 4° C. After centrifugation, the adipose tissue pieces suspended at the uppermost layer of the supernatant as emulsion were carefully extracted and plated in DMEM in 35 mm culture dishes. The explant tissue thus obtained was treated with different concentrations of compounds after 6-7 hours.

ATGL [5] = assay: Reversal of ATGL decrease in COP1 overexpressing HepG2 cells; assay type: cell-based; conditions: myc-DDK-COP1, 5 μM, 24 hours
Protocol: COP1 is an E3 ubiquitin ligase with ATGL as one of its targets for ubiquitination and subsequent proteasomal degradation by 26S proteasome. Therefore, it is only legit for ATGL levels to decrease upon COP1 overexpression. To this end, HepG2 cells were transfected with 500 ng of myc-DDK-COP1 plasmid using Lipofectamine 2000 and treated with 5 μM of the compounds 9 and 10 for 24 hours. 48 hours post transfection, cells were harvested and western blot was carried out.

COP1 [6] = target: T1, COP1; assay: COP1 level in primary mouse hepatocytes (western blot); assay type: cell-based; set-up: endogenous in cells; host or cells: primary mouse hepatocytes (C57bl/6); conditions: 24 hours
Protocol: as §1
as §2, with “treatment. […]” for “treatment.”

Structure (SMILES)	ATGL level in primary mouse hepatocytes (ATGL [1])	ATGL level in liver, 8 hours after feeding (ATGL [2]; 8 hours)	ATGL level in liver, 16 hours after feeding (ATGL [2]; 16 hours)	COP1 level in liver, 8 hours after feeding (COP1 [3])	ATGL level in mouse adipose explants (ATGL [4])	Restoration of ATGL level upon COP1 overexpression (ATGL [5])	COP1 level in primary mouse hepatocytes (COP1 [6])
COCCn1c(C)nc2ccc(NC(=O)Nc3cccc(C(C)=O)c3)cc2c1=O [Compound 107, 1-(3-acetylphenyl)-3-(3-(2-methoxyethyl)-2-methyl-4-oxo-3,4-dihydroquinazolin-6-yl)urea]	increase ATGL level; also recorded: subtle inclination towards increasing ATGL level	modestly increase ATGL level; also recorded: no significant impact	modestly increase ATGL level; also recorded: effective in increasing ATGL and COP1 levels	no such effect on COP1; also recorded: no significant impact	no such changes were observed; also recorded: this effect was absent; also recorded: did not show any significant changes in ATGL protein		
COCCn1cnc2ccc(NC(=O)Nc3cccc(C(C)=O)c3)cc2c1=O [Compound 9, 1-(3-acetylphenyl)-3-(3-(2-methoxyethyl)-4-oxo-3,4-dihydroquinazolin-6-yl)urea]	increase ATGL level; also recorded: subtle inclination towards increasing ATGL level				no such changes were observed; also recorded: this effect was absent; also recorded: did not show any significant changes in ATGL protein	could restore the reduced ATGL level; also recorded: could restore ATGL to its normal level	
COCCn1c(CN2CCCCC2)nc2ccc(NC(=O)Nc3cccc(C(C)=O)c3)cc2c1=O [Compound 238, 1-(3-acetylphenyl)-3-(3-(2-methoxyethyl)-4-oxo-2-(piperidin-1-ylmethyl)-3,4-dihydroquinazolin-6-yl)urea]	increase ATGL and COP1 levels dose dependently; also recorded: enhance ATGL levels at 1 μM and 5 μM doses						increase ATGL and COP1 levels dose dependently; also recorded: increased only with 5 μM concentration
